How the values were obtained:
Test in all cases: relative viability (nuclei count vs DMSO), 5 days (fraction); higher = more cells survive
Serdemetan + Pictilisib = compound: c1ccc2c(CCNc3ccc(Nc4ccncc4)cc3)c[nH]c2c1 [Serdemetan] + CS(=O)(=O)N1CCN(Cc2cc3nc(-c4cccc5[nH]ncc45)nc(N4CCOCC4)c3s2)CC1 [Pictilisib] (partner 1 µM)
Outline: (§1)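 Dosing by pin tool came one day after lung cancer cell lines were seeded in 1536-well plates, using either one drug or a fixed anchor-drug dose plus five library-drug doses (not always all listed) in √10 steps. After 5 days, nuclei were counted on 4× images. Relative viability is treated-well nuclei count divided by vehicle-well nuclei count, and values are medians of duplicate plates.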

Serdemetan + Linsitinib = compound: c1ccc2c(CCNc3ccc(Nc4ccncc4)cc3)c[nH]c2c1 [Serdemetan] + C[C@]1(O)C[C@@H](c2nc(-c3ccc4ccc(-c5ccccc5)nc4c3)c3c(N)nccn32)C1 [Linsitinib] (partner 1 µM)
Outline: as §1

Serdemetan + Foretinib = compound: c1ccc2c(CCNc3ccc(Nc4ccncc4)cc3)c[nH]c2c1 [Serdemetan] + COc1cc2c(Oc3ccc(NC(=O)C4(C(=O)Nc5ccc(F)cc5)CC4)cc3F)ccnc2cc1OCCCN1CCOCC1 [Foretinib] (partner 0.25 µM)
Outline: as §1

Serdemetan + Luminespib = compound: c1ccc2c(CCNc3ccc(Nc4ccncc4)cc3)c[nH]c2c1 [Serdemetan] + CCNC(=O)c1noc(-c2cc(C(C)C)c(O)cc2O)c1-c1ccc(CN2CCOCC2)cc1 [Luminespib] (partner 0.01 µM)
Outline: as §1

In the case of UMC-11, the relative viability (Serdemetan + Pictilisib; first compound 0.04 µM) is reported as 0.813, the relative viability (Serdemetan + Pictilisib; first compound 0.1265 µM) is reported as 0.866 and the relative viability (Serdemetan + Pictilisib; first compound 0.4 µM) is reported as 0.824. The relative viability (Serdemetan + Pictilisib; first compound 1.265 µM) was 0.47, the relative viability (Serdemetan + Pictilisib; first compound 4 µM) was 0.737 and the relative viability (Serdemetan + Linsitinib; first compound 0.04 µM) was 1.03. The relative viability (Serdemetan + Linsitinib; first compound 0.1265 µM) was 0.902, the relative viability (Serdemetan + Linsitinib; first compound 0.4 µM) was 0.873 and the relative viability (Serdemetan + Linsitinib; first compound 1.265 µM) was 0.701. For the same cell line, the relative viability (Serdemetan + Linsitinib; first compound 4 µM) was 0.828, the relative viability (Serdemetan + Foretinib; first compound 0.04 µM) was 0.919 and the relative viability (Serdemetan + Foretinib; first compound 0.1265 µM) was 1.02. The relative viability (Serdemetan + Foretinib; first compound 4 µM) was 0.828, the relative viability (Serdemetan + Luminespib; first compound 0.04 µM) was 0.938 and the relative viability (Serdemetan + Luminespib; first compound 0.1265 µM) was 1.01. For the same cell line, the relative viability (Serdemetan + Luminespib; first compound 4 µM) was 0.852.

— the supplement of paper PMC10307832
